For eight molecules, IC50, inhibition and melting point results are on record in US7053070B2, “Pyrido[2,3-d]pyrimidine-2,7-diamine kinase inhibitors” (Warner-Lambert Company, priority 2000, dated 2006).

One data set addresses cdk1/cyclinB (Homo sapiens, UniProt P06493). Put plainly: Cyclin dependent kinase 1 assay (cdk1/cyclinB), 32P incorporation, filter plate. To be noted: retinoblastoma substrate, 12 mM ATP, 25° C., 15 minutes; read-out: Inhibition of Cdks: IC50 Cdk1/B. Format: biochemical. The gist of the method:
(§1)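 Radiometric filter assay: 20 ng cdk1/B, cdk2/A or cdk2/E with 1 μg retinoblastoma substrate in 20 mM Tris pH 7.4, 50 mM NaCl, 1 mM DTT, 10 mM MgCl2, […] plus [32P]ATP. Started with ATP, 15 min at 25 °C, stopped and precipitated with TCA; 32P incorporation counted for IC50.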

A further data set deals with cdk2/cyclinE (Homo sapiens, UniProt P24941). The experiment in a line: Cyclin dependent kinase 2 assay (cdk2/cyclinE), 32P incorporation, filter plate. It counts as biochemical. To be noted: retinoblastoma substrate, 12 mM ATP, 25° C., 15 minutes; read-out: Inhibition of Cdks: IC50 Cdk2/E. The essentials: as §1
For data set [1], the target named is T1, PDGF-β receptor tyrosine kinase (PDGFr) (Mus musculus, UniProt P05622).
T1 construct: amplify a fragment of DNA that codes for the intracellular tyrosine kinase domain; made in house; host or cells: SF9 insect cells (baculovirus); crude cell lysate used
The experiment in a line: PDGF Receptor Tyrosine Kinase Assay. It counts as biochemical. To be noted: glutamate-tyrosine co-polymer substrate; for inhibition at 50 µM: at 50 μM compound, read-out: Inhibition of Tyrosine Kinases: % Inhibition at 50 μM PDGFr; for pIC50: read-out: Inhibition of Tyrosine Kinases: IC50 in parenthesis PDGFr. The source says: (§2) PDGF and FGF Receptor Tyrosine Kinase Assays
(§3) Full-length cDNAs for the mouse PDGF-β and human FGF-1 (flg) receptor tyrosine kinases are obtained from J. Escobedo and prepared as described in J. Biol. Chem. 1991; 262:1482-1487. PCR primers are designed to amplify a fragment of DNA that codes for the intracellular tyrosine kinase domain. The fragment is inserted into a baculovirus vector, cotransfected with AcMNPV DNA, and the recombinant virus isolated. SF9 insect cells are infected with the virus to overexpress the protein, and the cell lysate is used for the assay. Assays are performed in 96-well plates (100 μL/incubation/well), and conditions are optimized to measure the incorporation of ^32P from γ^32P-ATP into a glutamate-tyrosine co-polymer substrate. Briefly, to each well is added 82.5 μL of incubation buffer containing 25 mM Hepes (pH 7.0), 150 mM NaCl, 0.1% Triton X-100, 0.2 mM PMSF, 0.2 mM Na3VO4, 10 mM MnCl2, and 750 μg/mL of Poly (4:1) glutamate-tyrosine followed by 2.5 μL of inhibitor and 5 μL of enzyme lysate (7.5 μg/μL FGF-TK or 6.0 μg/μL PDGF-TK) to initiate the reaction. Following a 10-minute incubation at 25° C. […] of γ^32P-ATP (0.4 μCi plus 50 μM ATP) is added to each well, and samples are incubated for an additional 10 minutes at 25° C. The reaction is terminated by the addition of 100 μL of 30% trichloroacetic acid (TCA) containing 20 mM sodium pyrophosphate and precipitation of material onto glass fiber mats (Wallac). Filters are washed 3 times with 15% TCA containing 100 mM sodium pyrophosphate, and the radioactivity retained on the filters counted in a Wallac 1250 Betaplate reader. Nonspecific activity is defined as radioactivity retained on the filters following incubation of samples with buffer alone (no enzyme). Specific enzymatic activity (enzyme plus buffer) is defined as total activity minus nonspecific activity.

Data set [2] concerns the target T2, FGF-1 (flg) receptor tyrosine kinase (FGFr) (Homo sapiens, UniProt P11362).
T2 construct: amplify a fragment of DNA that codes for the intracellular tyrosine kinase domain; made in house; host or cells: SF9 insect cells (baculovirus); crude cell lysate used
Put plainly: FGF Receptor Tyrosine Kinase Assay. Format: biochemical. To be noted: glutamate-tyrosine co-polymer substrate; for inhibition at 50 µM: at 50 μM compound, read-out: Inhibition of Tyrosine Kinases: % Inhibition at 50 μM FGFr; for pIC50: read-out: Inhibition of Tyrosine Kinases: IC50 in parenthesis FGFr.
Source text: as §2, §3

A further data set deals with cdk2/cyclinA (Homo sapiens, UniProt P24941). Put plainly: Cyclin dependent kinase 2 assay (cdk2/cyclinA), 32P incorporation, filter plate. Format: biochemical. To be noted: retinoblastoma substrate, 12 mM ATP, 25° C., 15 minutes; read-out: Inhibition of Cdks: IC50 Cdk2/A. The essentials:
as §1

Another data set concerns the target cdk4/cyclinD (Homo sapiens, UniProt P11802). The experiment in a line: Cyclin Dependent Kinase 4 (cdk-4) Assay, 32P incorporation, filter plate. It counts as biochemical. To be noted: retinoblastoma substrate, 25 μM ATP, 25° C., 15 minutes; read-out: Inhibition of Cdks: IC50 Cdk4D. The essentials: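 Filter-plate radiometric assay for IC50s: 20 ng cdk4 with 1 μg retinoblastoma substrate in 20 mM TRIS pH 7.4, 50 mM NaCl, 1 mM DTT, 10 mM MgCl2. Started with 25 μM ATP plus [32P]ATP and run 15 min at 25° C, then stopped with TCA. Precipitated substrate was washed and 32P incorporation counted.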

pIC50: −log10 of the molar value.

T1 sequence (P05622 599-961 limits assumed): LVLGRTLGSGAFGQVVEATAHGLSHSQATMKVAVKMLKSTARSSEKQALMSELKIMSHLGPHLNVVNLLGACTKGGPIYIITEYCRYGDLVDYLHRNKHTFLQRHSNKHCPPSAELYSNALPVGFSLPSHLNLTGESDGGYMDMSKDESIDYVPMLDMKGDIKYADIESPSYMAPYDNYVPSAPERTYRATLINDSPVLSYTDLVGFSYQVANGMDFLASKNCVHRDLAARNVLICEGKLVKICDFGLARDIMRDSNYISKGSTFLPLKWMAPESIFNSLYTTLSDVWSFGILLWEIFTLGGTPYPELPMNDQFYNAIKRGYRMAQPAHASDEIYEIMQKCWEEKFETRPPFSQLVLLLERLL
Sequence of cdk1/cyclinB (P06493 whole entry, species assumed): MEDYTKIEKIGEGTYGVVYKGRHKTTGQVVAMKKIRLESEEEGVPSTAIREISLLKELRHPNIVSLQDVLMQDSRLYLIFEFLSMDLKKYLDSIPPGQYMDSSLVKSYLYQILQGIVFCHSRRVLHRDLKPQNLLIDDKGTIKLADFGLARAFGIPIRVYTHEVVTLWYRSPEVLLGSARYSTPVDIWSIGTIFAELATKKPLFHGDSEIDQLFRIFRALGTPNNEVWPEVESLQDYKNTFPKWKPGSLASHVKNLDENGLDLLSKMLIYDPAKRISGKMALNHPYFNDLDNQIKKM
Sequence of cdk1/cyclinB (P14635 whole entry partner, species assumed): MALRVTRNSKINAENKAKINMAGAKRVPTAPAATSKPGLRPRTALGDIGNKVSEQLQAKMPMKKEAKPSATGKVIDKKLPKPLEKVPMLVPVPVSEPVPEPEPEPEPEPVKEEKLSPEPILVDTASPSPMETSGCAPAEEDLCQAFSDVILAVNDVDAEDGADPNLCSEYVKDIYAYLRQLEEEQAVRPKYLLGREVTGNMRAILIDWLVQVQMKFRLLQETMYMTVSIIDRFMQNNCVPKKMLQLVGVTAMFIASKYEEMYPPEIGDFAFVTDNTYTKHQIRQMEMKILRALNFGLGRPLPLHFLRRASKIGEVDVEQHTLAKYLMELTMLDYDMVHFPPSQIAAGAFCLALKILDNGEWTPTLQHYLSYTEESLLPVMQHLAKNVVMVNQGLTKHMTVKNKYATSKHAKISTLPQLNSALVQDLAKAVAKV
Sequence of cdk4/cyclinD (P11802 whole entry, species assumed): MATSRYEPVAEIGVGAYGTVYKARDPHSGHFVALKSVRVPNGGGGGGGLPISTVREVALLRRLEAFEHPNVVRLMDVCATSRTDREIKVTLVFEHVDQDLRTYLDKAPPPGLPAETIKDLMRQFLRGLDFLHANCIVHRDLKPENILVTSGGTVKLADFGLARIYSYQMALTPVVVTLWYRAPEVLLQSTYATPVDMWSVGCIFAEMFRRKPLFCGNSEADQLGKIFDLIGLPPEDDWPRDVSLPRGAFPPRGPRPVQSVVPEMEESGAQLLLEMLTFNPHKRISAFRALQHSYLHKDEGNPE
Sequence of cdk4/cyclinD (P24385 whole entry partner, species assumed): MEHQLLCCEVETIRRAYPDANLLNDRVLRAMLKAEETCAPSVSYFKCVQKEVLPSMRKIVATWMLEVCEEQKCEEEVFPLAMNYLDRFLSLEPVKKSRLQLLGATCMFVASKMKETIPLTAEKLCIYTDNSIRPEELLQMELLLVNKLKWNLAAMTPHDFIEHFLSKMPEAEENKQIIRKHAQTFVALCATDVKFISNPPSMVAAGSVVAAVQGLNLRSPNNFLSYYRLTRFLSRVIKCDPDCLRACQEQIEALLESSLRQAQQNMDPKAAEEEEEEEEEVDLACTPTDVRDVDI
T2 sequence (P11362 478-767 limits assumed): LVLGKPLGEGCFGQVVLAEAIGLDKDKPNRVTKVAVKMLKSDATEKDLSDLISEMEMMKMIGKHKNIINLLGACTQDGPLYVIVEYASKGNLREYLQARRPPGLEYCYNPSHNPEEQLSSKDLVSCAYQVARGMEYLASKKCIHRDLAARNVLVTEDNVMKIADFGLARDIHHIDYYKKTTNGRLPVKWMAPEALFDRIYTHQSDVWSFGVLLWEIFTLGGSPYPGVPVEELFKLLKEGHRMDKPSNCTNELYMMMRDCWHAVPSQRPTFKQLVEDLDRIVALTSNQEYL

The inhibition is the change of the read-out against control, counted positive when it falls. Broadly, the melting point is the temperature of the solid-liquid transition. Take `CC(C)(C)NC(=O)Nc1ccc2cnc(Nc3ccccc3)nc2n1` [Compound 45, 1-tert-Butyl-3-(2-phenylamino-pyrido[2,3-d]pyrimidin-7-yl)-urea]: the melting point was 227 °C (dec.). Further, on cdk1/cyclinB, the pIC50 is 6.26. Also, the pIC50 on cdk2/cyclinE is 6.96. In data set [1], the inhibition at 50 µM was 21.9%. Also, the inhibition at 50 µM in data set [2] amounted to 67.4%. For the same molecule, the pIC50 on cdk2/cyclinA was 7.27. Also, the pIC50 at cdk4/cyclinD was 7.35.

Consider `Cc1cc2cnc(Nc3ccc(N4C[C@@H](C)N[C@@H](C)C4)cc3)nc2nc1NC(=O)NC(C)(C)C` [Compound 117, 1-tert-Butyl-3-{2-[4(cis-3,5-dimethyl-piperazin-1-yl)-phenylamino]-6-methyl-pyrido[2,3-d]pyrimidin-7-yl}-urea], for which the pIC50 at cdk1/cyclinB was < 5.30; at cdk2/cyclinE it was 5.40; in data set [1], 7.09; in data set [2], 7.21; at cdk2/cyclinA, < 5.30; on cdk4/cyclinD it was 7.12.

Consider `O=C(Nc1nc2nc(Nc3ccc(N4CCNCC4)cc3)ncc2cc1Br)NC1CCCCC1` [Compound 55, 1-[6-Bromo-2-(4-piperazin-1-yl-phenylamino)-pyrido[2,3-d]pyrimidin-7-yl]-3-cyclohexyl-urea], for which the melting point is 195 °C (dec.). Besides, the pIC50 at cdk1/cyclinB was < 5.30. On cdk2/cyclinE, the pIC50 is < 5.30. Besides, the pIC50 in data set [1] is 7.48. Also, the pIC50 in data set [2] is 6.82. Also, the pIC50 at cdk2/cyclinA was < 5.30. In addition, the pIC50 on cdk4/cyclinD was 6.52.

The molecule `CN(C(=O)NC1CCCCC1)c1ccc2cnc(Nc3ccc(N4CCNCC4)cc3)nc2n1` [Compound 70, 3-Cyclohexyl-1-methyl-1-[2-(4-piperazin-1-yl-phenylamino)-pyrido[2,3-d]pyrimidin-7-yl]-urea] had a melting point of 169 to 175 °C. At cdk1/cyclinB, the pIC50 was 5.84. In addition, at cdk2/cyclinE, the pIC50 is 6.28. For the same molecule, in data set [1], the pIC50 was 6.27. Moreover, in data set [2], the pIC50 is 5.94. Further, the pIC50 on cdk2/cyclinA is 6.16. For the same molecule, the pIC50 at cdk4/cyclinD was 7.77.

Turning to `O=C(Nc1nc2nc(Nc3ccc(N4CCNCC4)cc3)ncc2cc1F)NC1CCCCC1` [Compound 11, 1-Cyclohexyl-3-[6-fluoro-2-(4-piperazin-1-yl-phenylamino)-pyrido[2,3-d]pyrimidin-7-yl]-urea], the pIC50 was 6.80 at cdk1/cyclinB; 6.90 on cdk2/cyclinE; 6.88 in data set [1]; 6.55 in data set [2]; 7.04 on cdk2/cyclinA; 7.96 on cdk4/cyclinD.

Take `Cc1cc(Nc2ncc3ccc(NC(=O)NC(C)(C)C)nc3n2)ccc1F` [Compound 46, 1-tert-Butyl-3-[2-(4-fluoro-3-methyl-phenylamino)-pyrido[2,3-d]pyrimidin-7-yl]-urea]: the melting point was 230 °C (dec.). Besides, the pIC50 on cdk1/cyclinB is 7.12. The pIC50 on cdk2/cyclinE is 6.52. In data set [1], the inhibition at 50 µM was found to be 17.5%. Moreover, in data set [2], the inhibition at 50 µM was found to be 19.5%. The pIC50 at cdk4/cyclinD was < 5.30.

For the molecule `CC(C)(C)NC(=O)Nc1ccc2cnc(Nc3ccc(N4CCNCC4)cc3)nc2n1` [Compound 1, 1-tert-Butyl-3-[2-(4-piperazin-1-yl-phenylamino)-pyrido[2,3-d]pyrimidin-7-yl]-urea], the pIC50 is 6.66 at cdk1/cyclinB; 6.89 at cdk2/cyclinE; 6.23 in data set [1]; 7.22 at cdk2/cyclinA; 8.22 on cdk4/cyclinD. For the same molecule, the inhibition at 50 µM came out at 94.4% in data set [1] and 93.7% in data set [2].

As to `CC(C)(C)OC(=O)N1CCN(c2ccc(Nc3ncc4ccc(NC(=O)NC5CCCCC5)nc4n3)cc2)CC1` [Compound 80], the melting point is 241 °C (dec.). Moreover, the pIC50 at cdk1/cyclinB was 6.34. Moreover, the pIC50 at cdk2/cyclinE is 6.64. In addition, in data set [2], the inhibition at 50 µM is 18.6%. For the same molecule, at cdk2/cyclinA, the pIC50 was 7.04. Further, the pIC50 on cdk4/cyclinD was 6.34.
